Laboratory results published in the NIST ThermoML archive (doi:10.1016/j.jct.2016.02.013).

Key:
[1] = for surface tension liquid-gas: Pendant drop shape; for electrical conductivity / viscosity / mass density: 101.33 kPa; for surface tension liquid-gas / electrical conductivity / viscosity / mass density: Liquid; for electrical conductivity: Alternating current cell with electrodes; for viscosity: Concentric cylinders viscometry; for mass density: Vibrating tube method
[2] = refractive index (Na D-line) (dimensionless); settings: 101.33 kPa, Liquid, Standard Abbe refractometry

CCCC[N+](CCCC)(CCCC)CCCC.O=S(=O)([O-])C(F)(F)C(F)(F)C(F)(F)C(F)(F)F [tetrabutylammonium perfluorobutanesulfonate]
[1]
Settings	surface tension liquid-gas [mN/m]
333.1 K	22.77
338 K	22.57
343.1 K	22.36
348.3 K	22.2
353.4 K	21.95

CC[n+]1cccc(C)c1.O=S(=O)([O-])C(F)(F)C(F)(F)C(F)(F)C(F)(F)F [1-ethyl-3-methylpyridinium perfluorobutanesulfonate]
[1]
Settings	surface tension liquid-gas [mN/m]
298.3 K	26.35
303.4 K	26.16
313.4 K	25.77
323.6 K	25.39
332.9 K	25.12
343 K	24.7

CCCC[N+](CCCC)(CCCC)CCCC.O=S(=O)([O-])C(F)(F)C(F)(F)C(F)(F)C(F)(F)C(F)(F)C(F)(F)C(F)(F)C(F)(F)F [tetrabutylammonium heptadecafluorooctanesulfonate]
[1]
Settings	surface tension liquid-gas [mN/m]
298.4 K	21.98
303.2 K	21.6
313.3 K	21.11
323.2 K	20.65
333.2 K	20.14
343 K	19.55

CC[n+]1cccc(C)c1.O=C([O-])C(F)(F)C(F)(F)C(F)(F)C(F)(F)F [1-ethyl-3-methylpyridinium perfluoropentanoate]
Settings	electrical conductivity, [1] [S/m]	mass density, [1] [kg/m3]	refractive index, [2]	surface tension liquid-gas, [1] [mN/m]	viscosity, [1] [mPa·s]
293.15 K	0.0915	1458.7	1.42282	–	196
298.15 K	0.12	1453.6	1.42137	–	147.1
298.3 K	–	–	–	26.83	–
303.15 K	0.155	1448.6	1.4199	–	110.8
308.15 K	0.194	1443.6	1.41844	–	85.39
308.2 K	–	–	–	26.49	–
313.15 K	0.239	1438.7	1.41697	–	67.81
317.9 K	–	–	–	26.07	–
318.15 K	0.289	1433.7	1.41553	–	53.67
323.15 K	0.355	1428.9	1.41406	–	43.6
328 K	–	–	–	25.71	–
328.15 K	–	1424	1.4126	–	35.94
333.15 K	–	1419.2	1.41114	–	30.35
338 K	–	–	–	25.31	–
338.15 K	–	1414.3	1.40955	–	25.32
343.15 K	–	1409.4	1.40811	–	21.61
347 K	–	–	–	24.94	–
348.15 K	–	1404.5	1.40672	–	18.61
353.15 K	–	1399.5	1.40531	–	16.39

Settings	Normal melting temperature [°C]
[1], Crystal, DTA	2
